Data as given in patent EP0618905B1, “IMIDAZOLYL-ALKYL-PIPERAZINE AND -DIAZEPINE DERIVATIVES AS HISTAMINE H3 AGONISTS/ANTAGONISTS” (SCHERING CORPORATION, priority 1991, dated 1993).

Legend:
H₃ receptors = target: T1, H₃ receptors (Cavia porcellus, UniProt Q9JI35); assay: H3 Receptor Binding Assay; settings: guinea pig brain membranes; for Ki: 3 nM [³H]R-α-methylhistamine or [³H]-N-methylhistamine, 30° for 30 min; for H3 Binding (inhibition of the specific binding of radioactive ligand): final concentration 2 µg/mL with 0.1% DMSO, not serially diluted (70% or less inhibition)
T1 construct: The source of the H₃ receptors in this experiment was guinea pig brain; from tissue; host or cells: guinea pig brain membranes
Procedure: H₃ Receptor Binding Assay
The source of the H₃ receptors in this experiment was guinea pig brain. The animals used weighed 400-600 g. The tissue was homogenized using a Polytron in a solution of 50 mM Tris, pH 7.5. The final concentration of tissue in the homogenization buffer was 10% w/v. The homogenates were centrifuged at 1000 x g for 10 min. in order to remove clumps of tissue and debris. The resulting supernatants were then centrifuged at 50,000 x g for 20 min. in order to sediment the membranes, which were nest washed 3 times in homogenization buffer (50,000 x g for 20 min. each). The membranes were frozen and stored at -70°C until needed.
All compounds to be tested were dissolved in DMSO and then diluted into the binding buffer (50 mM Tris, pH 7.5) such that the final concentration was 2 µg/mL with 0.1% DMSO. Membranes were then added (400 µg of protein) to the reaction tubes. The reaction was started by the addition of 3 nM [³H]R-α-methylhistamine (8.8 Ci/mmol) or [³H]-N-methylhistamine (80 Ci/mmol) and incubated at 30° for 30 min. Bound ligand was separated from unbound ligand by filtration, and the amount of radioactive ligand bound to the membranes was quantitiated by liquid scintillation spectrometry.

[1] = target: H₃ receptors in rat brain (Rattus norvegicus, UniProt Q9QYN8); settings: complete agonists of the H₃ receptors; cited from earlier work
Chain of H₃ receptors in rat brain (Q9QYN8 whole entry): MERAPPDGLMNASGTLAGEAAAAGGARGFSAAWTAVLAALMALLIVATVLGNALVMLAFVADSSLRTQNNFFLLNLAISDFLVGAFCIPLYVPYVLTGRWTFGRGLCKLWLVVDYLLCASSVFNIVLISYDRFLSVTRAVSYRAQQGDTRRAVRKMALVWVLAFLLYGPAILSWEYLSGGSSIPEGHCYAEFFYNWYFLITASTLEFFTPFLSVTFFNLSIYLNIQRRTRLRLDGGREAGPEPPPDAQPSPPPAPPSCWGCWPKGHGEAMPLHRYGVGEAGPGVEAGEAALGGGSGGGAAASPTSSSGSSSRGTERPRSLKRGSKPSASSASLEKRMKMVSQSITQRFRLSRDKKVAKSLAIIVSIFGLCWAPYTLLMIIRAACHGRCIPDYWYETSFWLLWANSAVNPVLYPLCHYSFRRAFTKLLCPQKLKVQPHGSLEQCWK

T1 sequence (Q9JI35 whole entry): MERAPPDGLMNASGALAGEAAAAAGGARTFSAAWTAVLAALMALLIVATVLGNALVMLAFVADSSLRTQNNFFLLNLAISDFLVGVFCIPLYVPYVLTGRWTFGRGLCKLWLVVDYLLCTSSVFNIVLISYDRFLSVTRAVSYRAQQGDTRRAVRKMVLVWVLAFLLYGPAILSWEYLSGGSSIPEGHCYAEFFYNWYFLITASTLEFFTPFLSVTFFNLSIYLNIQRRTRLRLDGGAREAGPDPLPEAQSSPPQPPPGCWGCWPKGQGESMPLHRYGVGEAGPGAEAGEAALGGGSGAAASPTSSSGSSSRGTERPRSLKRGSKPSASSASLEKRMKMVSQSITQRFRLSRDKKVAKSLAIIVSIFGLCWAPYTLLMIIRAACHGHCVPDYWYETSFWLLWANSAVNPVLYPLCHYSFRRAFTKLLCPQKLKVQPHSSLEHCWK

| SMILES | Ki (H₃ receptors) | H3 Binding (inhibition of the specific binding of radioactive ligand) (H₃ receptors) | other results |
| --- | --- | --- | --- |
| c1nc(CN2CCCNCC2)c[nH]1 | 87 nM |  |  |
| NCCc1c[nH]cn1 [(a*), reference compound] | 14 nM |  |  |
| C[C@@H]1CN(Cc2c[nH]cn2)C[C@H](C)N1 |  | 24% |  |
| NCCc1c[nH]cn1 [histamine] |  |  | maximal inhibition of release [1]: approximately 60% |
| c1nc(CN2CCNCC2)c[nH]1 | 4.7 nM |  |  |
| CC1CN(Cc2c[nH]cn2)C(C)CN1 (stereo not drawn) |  | 6% |  |
